In brackets after ≈: the same amount, converted by molar mass.
Experiments:
[1] = Heat-up/cool-down crystallisation screen of sorbate salt (Example 10, Experiments 5, 8); assay type: physicochemical; conditions: Experiment 5; for Observations (t = 1 @ T = 20° C.): Tabernanthalog sorbate salt (Form A) crystallised from binary solvents, solvent A 3.0 vol plus solvent B, one pair per sample; for XRPD (oven dried @ 40° C., 20 h) / XRPD (centrifuged, wet): heat-up/cool-down crystallisation from binary solvents; for XRPD (centrifuged, wet): wet pellet
Description: The relevant solvent (0.225 ml, 3.0 vol) was added to the appropriate vial and the suspensions were stirred and warmed to temperature. If dissolution was not observed, further solvent was added until the solute dissolved, or aliquots of a secondary co-solvent were added to complete dissolution. Once dissolved, the solutions were left to cool down and stand undisturbed under sub-ambient conditions for several days. After crystallisation was judged complete, the products were isolated by centrifugation and the pellets were dried at 40° C. under reduced pressure. Products from the crystallisation (wet and dry) were initially analysed by XRPD (9-minute method), further analyses of certain products were performed by ^1H NMR, DSC and TGA, if the diffraction pattern indicated differences.

[2] = Solubility determinations in SIF buffers FaSSIF, FeSSIF, FaSSGF (Example 8, Experiment 5); conditions: for Tabernanthalog RRT = 1.00 (trended HPLC data, chemical purity): tabernanthalog sorbate salt, 37° C.
Description: The temperature was maintained at 37° C. for 24 h. […] The suspensions were sampled at the relevant time points and centrifuged. The centrifuged pellets, obtained at the time points were analysed by XRPD as a wet pellet and dried, for evidence of form change.
The temperature was maintained at 37° C. for 24 h.
The suspension was sampled at the relevant time points and centrifuged. […] The centrifuged pellets, obtained at the time points were analyzed by XRPD as a wet pellet and dried, for evidence of form change.

[3] = Suspension equilibration of the monofumarate salt at 20° C. and 40° C. (Experiment References 6, 7, 8); assay type: physicochemical; conditions: suspension equilibration at 40° C.
Description: Separate portions of the tabernanthalog monofumarate salt (Sample Reference 1, Pattern #1, ca 50 mg, 1.0 wt.) were charged to separate vessels. The appropriate solvents (e.g. 250 μl, 5.0 vol), were charged to the vessels and the mixtures were stirred for several days at their relevant temperatures e.g. 20 and 40° C. After this time the products were cooled, isolated by centrifugation, analyzed as wet pellet (suffix-1) by XRPD and dried under reduced pressure at 40° C. (suffix-2) and re-analyzed by XRPD and companion analyses for evidence of alternative crystalline forms.
The tabernanthalog monofumarate salt (Sample Reference 1, Pattern #1) was subjected to this technique at ambient temperature (20° C., Table 35) and at elevated temperature (40° C., Table 36), in a diverse range of solvents. The primary aim is to identify a stable, anhydrous monotropic form that is suitable for future development.
The tabernanthalog monofumarate salt (Sample Reference 1, Pattern #1, 1.0 g, 1 wt) was suspended in water (5 ml, 5 vol) at 20° C. for 10 days (the suspension was sub-sampled to monitor the conversion to Pattern #6a by XRPD). The suspension was filtered through a sintered funnel and the filter cake was dried under nitrogen flow for ca. 24 h. Sample 8-A4 (Experiment Reference 8-Sample Reference A4) was collected as a brown solid (560.6 mg, 56% yield uncorr.). Yield was not corrected for impurities, solvents, etc.

[4] = 37 °C, pH 1.6, fassgf or other biorelevant, thermodynamic from solid
[5] = 37 °C, pH 5, fessif, thermodynamic from solid
[6] = 37 °C, pH 6.5, fassif, thermodynamic from solid

Structure (SMILES): C/C=C/C=C/C(=O)O.COc1ccc2c3c([nH]c2c1)CCN(C)CC3 [Experiment 5-Sample L]
- Observations (t = 1 @ T = 20° C.) [1]: Partial
- XRPD (oven dried @ 40° C., 20 h) [1]: Form A
- XRPD (centrifuged, wet) [1]: Form A

Structure (SMILES): C/C=C/C=C/C(=O)O.COc1ccc2c3c([nH]c2c1)CCN(C)CC3 [Experiment 5-Sample M]
- Observations (t = 1 @ T = 20° C.) [1]: Liquid
- XRPD (oven dried @ 40° C., 20 h) [1]: Form A
- XRPD (centrifuged, wet) [1]: Form A

Structure (SMILES): C/C=C/C=C/C(=O)O.COc1ccc2c3c([nH]c2c1)CCN(C)CC3 [Experiment 5-Sample N]
- Observations (t = 1 @ T = 20° C.) [1]: Partial
- XRPD (oven dried @ 40° C., 20 h) [1]: Form A
- XRPD (centrifuged, wet) [1]: Form A

Structure (SMILES): C/C=C/C=C/C(=O)O.COc1ccc2c3c([nH]c2c1)CCN(C)CC3 [Experiment 5-Sample O]
- Observations (t = 1 @ T = 20° C.) [1]: Liquid
- XRPD (oven dried @ 40° C., 20 h) [1]: Form A
- XRPD (centrifuged, wet) [1]: Form A

Structure (SMILES): C/C=C/C=C/C(=O)O.COc1ccc2c3c([nH]c2c1)CCN(C)CC3 [Experiment 5-Sample P]
- Observations (t = 1 @ T = 20° C.) [1]: Partial
- XRPD (oven dried @ 40° C., 20 h) [1]: Form A
- XRPD (centrifuged, wet) [1]: Form A

Structure (SMILES): C/C=C/C=C/C(=O)O.COc1ccc2c3c([nH]c2c1)CCN(C)CC3 [Sample 5-L1]
- Tabernanthalog RRT = 1.00 (trended HPLC data, chemical purity) ([2]; t = 1 h in FaSSGF): 99.52

Structure (SMILES): C/C=C/C=C/C(=O)O.COc1ccc2c3c([nH]c2c1)CCN(C)CC3 [Sample 5-L4]
- Tabernanthalog RRT = 1.00 (trended HPLC data, chemical purity) ([2]; t = 3 h in FaSSGF): 99.36

Structure (SMILES): C/C=C/C=C/C(=O)O.COc1ccc2c3c([nH]c2c1)CCN(C)CC3 [Sample 5-L7]
- Tabernanthalog RRT = 1.00 (trended HPLC data, chemical purity) ([2]; t = 6 h in FaSSGF): 99.30

Structure (SMILES): C/C=C/C=C/C(=O)O.COc1ccc2c3c([nH]c2c1)CCN(C)CC3 [Sample 5-L10]
- Tabernanthalog RRT = 1.00 (trended HPLC data, chemical purity) ([2]; t = 24 h in FaSSGF): 99.33

Structure (SMILES): COc1ccc2c3c([nH]c2c1)CCN(C)CC3 [Tabernanthalog• Sorbate]
- solubility at 1 h [2, 4]: 21.9 mg/mL (≈ 95 mM)
- solubility at 3 h [2, 4]: 29.8 mg/mL (≈ 130 mM)
- solubility at 6 h [2, 4]: 30.3 mg/mL (≈ 131 mM)
- solubility at 24 h [2, 4]: 29.9 mg/mL (≈ 130 mM)
- solubility at 1 h [2, 5]: 27.2 mg/mL (≈ 118 mM)
- solubility at 3 h [2, 5]: > 30 mg/mL
- solubility at 6 h [2, 5]: > 30 mg/mL
- solubility at 1 h [2, 6]: > 30 mg/mL
- solubility at 3 h [2, 6]: > 30 mg/mL
- solubility at 6 h [2, 6]: > 30 mg/mL
- XRPD (dried) ([2]; FaSSGF (pH 1.6), t = 1 h @37° C., suspended solid, dried pellet): Sorbic acid
- XRPD (wet) ([2]; FaSSGF (pH 1.6), t = 1 h @37° C., suspended solid, wet pellet): Sorbic acid

Structure (SMILES): COc1ccc2c3c([nH]c2c1)CCN(C)CC3.O=C(O)/C=C/C(=O)O [Tabernanthalog•fumarate (CAT8931)]
- Observations (t = 0 @ 40° C.) ([3]; 7-A, Acetone): Suspension
- Observations (t = 1 d @ 40° C.) ([3]; 7-A, Acetone): Suspension
- Observations t = 7 d @ 40° C. ([3]; 7-A, Acetone): Suspension
- Observations (t = 0 @ 40° C.) ([3]; 7-B, Acetonitrile): Suspension
- Observations (t = 1 d @ 40° C.) ([3]; 7-B, Acetonitrile): Suspension
- Observations t = 7 d @ 40° C. ([3]; 7-B, Acetonitrile): Suspension
- Observations (t = 0 @ 40° C.) ([3]; 7-C, tert-Butylmethyl ether): Suspension
- Observations t = 7 d @ 40° C. ([3]; 7-C, tert-Butylmethyl ether): Suspension
- Observations (t = 0 @ 40° C.) ([3]; 7-D, Chlorobenzene): Suspension
- Observations (t = 1 d @ 40° C.) ([3]; 7-D, Chlorobenzene): Suspension
- Observations t = 7 d @ 40° C. ([3]; 7-D, Chlorobenzene): Suspension
- Observations (t = 0 @ 40° C.) ([3]; 7-E, Dichloromethane): Suspension
- Observations (t = 1 d @ 40° C.) ([3]; 7-E, Dichloromethane): Suspension
- Observations t = 7 d @ 40° C. ([3]; 7-E, Dichloromethane): Suspension
- Observations (t = 0 @ 40° C.) ([3]; 7-F, Ethanol): Suspension
- Observations (t = 1 d @ 40° C.) ([3]; 7-F, Ethanol): Suspension
- Observations t = 7 d @ 40° C. ([3]; 7-F, Ethanol): Suspension
- Observations (t = 0 @ 40° C.) ([3]; 7-G, Ethyl acetate): Suspension
- Observations (t = 1 d @ 40° C.) ([3]; 7-G, Ethyl acetate): Suspension
- Observations t = 7 d @ 40° C. ([3]; 7-G, Ethyl acetate): Suspension
- Observations (t = 0 @ 40° C.) ([3]; 7-H, Ethyl formate): Suspension
- Observations (t = 1 d @ 40° C.) ([3]; 7-H, Ethyl formate): Suspension
- Observations t = 7 d @ 40° C. ([3]; 7-H, Ethyl formate): Suspension
- Observations (t = 0 @ 40° C.) ([3]; 7-I, Heptane): Suspension
- Observations (t = 1 d @ 40° C.) ([3]; 7-I, Heptane): Suspension
- Observations t = 7 d @ 40° C. ([3]; 7-I, Heptane): Suspension
- Observations (t = 0 @ 40° C.) ([3]; 7-J, Isopropyl acetate): Suspension
- Observations (t = 1 d @ 40° C.) ([3]; 7-J, Isopropyl acetate): Suspension
- Observations t = 7 d @ 40° C. ([3]; 7-J, Isopropyl acetate): Suspension
- Observations (t = 0 @ 40° C.) ([3]; 7-K, Methanol): Suspension
- Observations t = 7 d @ 40° C. ([3]; 7-K, Methanol): Suspension
- Observations (t = 0 @ 40° C.) ([3]; 7-L, Methyl acetate): Suspension
- Observations (t = 1 d @ 40° C.) ([3]; 7-L, Methyl acetate): Suspension
- Observations t = 7 d @ 40° C. ([3]; 7-L, Methyl acetate): Suspension
- Observations (t = 0 @ 40° C.) ([3]; 7-M, Methylethyl ketone): Suspension
- Observations (t = 1 d @ 40° C.) ([3]; 7-M, Methylethyl ketone): Suspension
- Observations t = 7 d @ 40° C. ([3]; 7-M, Methylethyl ketone): Suspension
- Observations (t = 0 @ 40° C.) ([3]; 7-N, 2-Methyl THF): Suspension
- Observations (t = 1 d @ 40° C.) ([3]; 7-N, 2-Methyl THF): Suspension
- Observations t = 7 d @ 40° C. ([3]; 7-N, 2-Methyl THF): Suspension
- Observations (t = 0 @ 40° C.) ([3]; 7-O, Nitromethane): Suspension
- Observations (t = 1 d @ 40° C.) ([3]; 7-O, Nitromethane): Suspension
- Observations t = 7 d @ 40° C. ([3]; 7-O, Nitromethane): Suspension
- Observations (t = 0 @ 40° C.) ([3]; 7-P, 2-Propanol): Suspension
- Observations (t = 1 d @ 40° C.) ([3]; 7-P, 2-Propanol): Suspension
- Observations t = 7 d @ 40° C. ([3]; 7-P, 2-Propanol): Suspension
- Observations (t = 0 @ 40° C.) ([3]; 7-Q, Tetrahydrofuran): Suspension
- Observations (t = 1 d @ 40° C.) ([3]; 7-Q, Tetrahydrofuran): Sticky Solid
- Observations t = 7 d @ 40° C. ([3]; 7-Q, Tetrahydrofuran): Suspension
- Observations (t = 0 @ 40° C.) ([3]; 7-R, Toluene): Suspension
- Observations (t = 1 d @ 40° C.) ([3]; 7-R, Toluene): Suspension
- Observations t = 7 d @ 40° C. ([3]; 7-R, Toluene): Suspension
- Observations (t = 0 @ 40° C.) ([3]; 7-S, Water): Suspension
- Observations t = 7 d @ 40° C. ([3]; 7-S, Water): Suspension

— patent US20230257385A1, “SALT AND SOLID FORMS OF TABERNANTHALOG” (priority 2021, published 2023)
